Source: US11952364B2, “TRK inhibitors useful as anticancer drugs” (TYLIGAND BIOSCIENCE (SHANGHAI) LIMITED, priority 2018, dated 2024)

Columns and labels:
P450 2C19 = P450 2C19 (Homo sapiens (Human), UniProt P33261); assay: Cytochrome P450 inhibition in human liver microsomes; assay type: in vitro ADME
Excerpt: (§1) According to the standard methods conventional in the art for cytochrome P450 enzyme system study, for example those described in Kerns, Edward H. and Di Li (2008). Drug-like Properties: Concepts. Structure Design and Methods: from ADME to Toxicity Optimization. San Diego: Academic Press; Lin, Tong et al., In Vitro Assessment of Cytochrome P450 Inhibition: Strategies for Increasing LC/MS-Based Assay Throughput Using a One-Point IC50 Method and Multiplexing High-Performance Liquid Chromatography; J. Pharm. Sci. 2007, 96(9), 2485.), the inhibitory effect of the compounds of the present disclosure on the cytochrome P450 enzyme system was investigated analogously as follows. The test compounds were evaluated by detecting the metabolism of human liver microsomes for the substrates of different subtypes of Cyp450. The liver microsomes (Sekisui XenoTech, LLC., human liver microsomes, cat. #H0610) were slowly melted on ice, and 0.482 mL of the liver microsome solution (20 mg/mL) was added to 30 mL of 100 mM potassium phosphate solution to prepare a liver microsome working solution with a concentration of 0.316 mg/mL. The test compound and specific inhibitors of different Cyp450 subtypes (as a control) were prepared into 10 mM DMSO solutions, and then 20 μL of the 10 mM DMSO compound solution was added to 180 μL of acetonitrile to obtain a 1 mM compound solution. 2 μL of such 1 mM test compound or inhibitor solution was added to 150 μL of 0.316 mg/mL liver microsome working solution to obtain a 13.16 μM compound working solution. 45.3 mg of NADPH (SIGMA, cat. #V900362) was weighted and added into 13.59 mL of deionized water to prepare a 4 mM NADPH aqueous solution. 0.2 mL of 2 mg/mL internal standard stock solution (dexamethasone in acetonitrile) was added to 1000 mL of acetonitrile (SIGMA, cat. #271004) to prepare a reaction stop solution and stored at 4° C. 150 μL 0.316 mg/mL human liver microsome working solution was added to each well of a 96-well deep plate, and 2 μL of 1 mM specific inhibitor or test compound solution was added to the corresponding wells, and then added to each well 50 μL preheated working solution of each substrate (in 4 mM NADPH solution). After incubating for 5-40 minutes respectively (different enzymes have different incubation times), 200 μL of pre-cooled reaction stop solution was added. All samples were centrifuged at 4000 rpm for 20 minutes. 150 μL of the centrifugal supernatant was then added to a new 96-well deep plate, and added to each well 150 μL of 0.1% formic acid aqueous solution, for analysis by LC/MS/MS (SCI AP4000). The single point IC50 values were calculated according to the following formula. [formula] • (Assuming Hill slope=1) • C0=concentration of test compound and inhibitor solution

P450 2C9 = P450 2C9 (Homo sapiens (Human), UniProt P11712); assay: as above; assay type: in vitro ADME
Sequence of P450 2C9 (P11712 whole entry): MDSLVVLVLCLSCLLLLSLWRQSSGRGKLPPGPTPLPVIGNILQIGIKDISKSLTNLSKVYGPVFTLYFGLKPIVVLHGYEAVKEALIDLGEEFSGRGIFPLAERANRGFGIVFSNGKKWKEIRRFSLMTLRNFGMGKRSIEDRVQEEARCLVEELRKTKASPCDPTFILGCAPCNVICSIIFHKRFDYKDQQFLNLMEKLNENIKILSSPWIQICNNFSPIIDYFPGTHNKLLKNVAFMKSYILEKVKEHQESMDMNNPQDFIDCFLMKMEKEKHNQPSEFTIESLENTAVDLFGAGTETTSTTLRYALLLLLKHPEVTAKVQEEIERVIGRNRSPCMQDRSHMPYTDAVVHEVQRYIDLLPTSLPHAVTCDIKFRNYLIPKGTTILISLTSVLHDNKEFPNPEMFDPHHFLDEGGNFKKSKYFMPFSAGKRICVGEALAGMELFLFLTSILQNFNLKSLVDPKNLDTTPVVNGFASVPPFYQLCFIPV
Excerpt: as §1

P450 1A2 = P450 1A2 (Homo sapiens (Human), UniProt P05177); assay: as above; assay type: in vitro ADME
Sequence of P450 1A2 (P05177 whole entry): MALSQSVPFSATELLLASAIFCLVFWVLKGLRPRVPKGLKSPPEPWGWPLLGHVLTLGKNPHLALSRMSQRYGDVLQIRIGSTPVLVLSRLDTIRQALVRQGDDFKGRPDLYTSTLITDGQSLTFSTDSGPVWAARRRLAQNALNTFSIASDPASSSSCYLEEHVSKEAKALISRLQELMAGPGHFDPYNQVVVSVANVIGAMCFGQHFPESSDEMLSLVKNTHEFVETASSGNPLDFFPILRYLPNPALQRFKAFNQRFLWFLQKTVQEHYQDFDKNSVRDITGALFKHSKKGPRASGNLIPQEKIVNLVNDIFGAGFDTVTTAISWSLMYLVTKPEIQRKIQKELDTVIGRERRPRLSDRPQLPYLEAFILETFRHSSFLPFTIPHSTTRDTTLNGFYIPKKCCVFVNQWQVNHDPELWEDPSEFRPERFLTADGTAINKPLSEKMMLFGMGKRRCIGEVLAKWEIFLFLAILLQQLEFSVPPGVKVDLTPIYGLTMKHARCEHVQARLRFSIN
Excerpt: as §1

[1] = Metabolic stability in liver microsomes; assay type: in vitro ADME, cynomolgus monkey; conditions: pH 7.4, monkey liver microsomes; for half-life at 1 µM: read-out: T½
Excerpt: According to standard methods conventional in the art for in vitro metabolic stability studies, for example those protocols described in Kems, Edward H. and Di Li (2008). Drug-like Properties: Concepts. Structure Design and Methods: from ADME to Toxicity Optimization. San Diego: Academic Press; Di, Li et al., Optimization of a Higher Throughput Microsomal Stability Screening Assay for Profiling Drug Discovery Candidates, J. Biomol. Screen. 2003, 8(4), 453., the metabolic stability test in liver microsomes of the present compound was performed analogously as follows.
The in vitro metabolic stability of the compound in 5 species (mouse, rat, dog, monkey, and human) was evaluated by liver microsomal stability test. 0.1M potassium phosphate buffer solution (pH 7.4, containing 1.0 mM EDTA) was prepared. The test compound and the control compound were prepared into a 10 mM DMSO solution, and then 10 μL of the 10 mM DMSO compound solution was added to 190 μL of acetonitrile to prepare a 500 μM compound solution. Liver microsomes (Sekisui XenoTech, LLC., human liver microsomes, cat. #H0610; Beagle dog liver microsomes, cat. #D1000; cynomolgus monkey liver microsomes, cat. #P2073; rat liver microsomes, cat. #R1073; mouse Liver microsomes, cat. #M1000) were taken and slowly melted on ice, then 18.75 μL of the liver microsome solution (20 mg/mL) and 1.5 μL of 500 μM compound solution were added to 479.75 μL of 0.1M potassium phosphate buffer solution to prepare a 0.75 mg/mL liver microsome working solution with a concentration of 1.5 μM compound. 6 mM NADPH (SIGMA, cat. #V900362) aqueous solution was prepared. 0.2 mL 2 mg/mL internal standard stock solution (imipramine solution in acetonitrile) was added to 1000 mL acetonitrile (SIGMA, cat. #271004) to prepare the reaction stop solution and stored at 4° C.
Six deep-well plates were labeled as T0, T5, T15, T30, T45 and NCF60 (negative control, without NADPH). 30 μL of […] control compound or test compound solution in 0.75 mg/mL liver microsome working solution was added to each well of the corresponding plates. After being sealed with film, all the microplates were placed in a 37° C. water bath to preheat for 5 minutes, and 6 mM NADPH solution was placed in a 37° C. water bath to preheat for 5 minutes. Then 15 μL of NADPH solution was added to each cell successively in reverse time order, that is, first adding the T45 plate, 15 minutes later the T30 plate, 15 minutes later again the T15 plate, and 10 minutes later gain the T5 plate. […]
The natural logarithm of the residue percentage at each time point was subjected to linearly regression as a factor of incubation time to obtain Slope k, and then the liver microsome clearance rate (CLint^mic) and in vitro half-life (T½) were calculated according to the following formula: […]

Sequence of P450 2C19 (P33261 whole entry): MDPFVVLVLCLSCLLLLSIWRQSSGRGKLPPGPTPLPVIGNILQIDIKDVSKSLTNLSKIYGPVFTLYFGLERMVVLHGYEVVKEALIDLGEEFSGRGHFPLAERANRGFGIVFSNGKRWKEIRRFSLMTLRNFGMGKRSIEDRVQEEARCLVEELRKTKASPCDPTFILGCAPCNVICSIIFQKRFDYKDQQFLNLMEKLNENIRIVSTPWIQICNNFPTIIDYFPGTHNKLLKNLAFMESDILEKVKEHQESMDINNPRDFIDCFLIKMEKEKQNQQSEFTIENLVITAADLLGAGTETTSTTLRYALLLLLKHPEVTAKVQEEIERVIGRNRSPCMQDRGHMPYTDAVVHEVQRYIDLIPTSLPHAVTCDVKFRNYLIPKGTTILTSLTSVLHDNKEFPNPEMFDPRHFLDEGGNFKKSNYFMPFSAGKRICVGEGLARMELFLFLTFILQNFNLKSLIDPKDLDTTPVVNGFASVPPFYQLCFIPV

Compound | IC50 (P450 2C19) [µM] | IC50 (P450 2C9) [µM] | inhibitory activity on 2C9 compared with Merestinib (P450 2C9; statement in words) | IC50 (P450 1A2) [µM] | CLint scaled at 1 µM [1] [mL/min/kg] | half-life at 1 µM [1] [min]
COc1ccc(C(=O)Nc2ccc(Oc3cc4cnn(C)c4cc3-c3cn[nH]c3)c(F)c2)c(=O)n1-c1ccc(F)cc1 [Example 12, N-(3-fluoro-4-(1-methyl-6-(1H-pyrazol-4-yl)-1H-indazol-5-yloxy)phenyl)-1-(4-fluorophenyl)-6-methoxy-2-oxo-1,2-dihydropyridine-3-carboxamide] | > 10 | 9.8 | significantly lower than that of the prior inhibitor Merestinib | > 10 | 36.2 | 56
Cc1ccc(C(=O)Nc2ccc(Oc3cc4cnn(C)c4cc3-c3cn[nH]c3)c(F)c2)c(=O)n1-c1ccc(F)cc1 [Merestinib, reference compound] | > 10 | 4.2 |  | > 10 | 81 | 25
